Laboratory results: the supplement of paper PMC10307832

Columns and labels:
Experiment in all cases: relative viability (nuclei count vs DMSO), 5 days (fraction); higher = more cells survive
[1] = compound: O=S(=O)(c1ccccc1)N(CC(F)(F)F)c1ccc(C(O)(C(F)(F)F)C(F)(F)F)cc1 + C[C@]1(O)C[C@@H](c2nc(-c3ccc4ccc(-c5ccccc5)nc4c3)c3c(N)nccn32)C1 [Linsitinib] (partner 1 µM)
In short: (§1)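 Lung cancer cell lines were seeded in 1536-well plates and dosed by pin tool the next day, with either a single drug or a fixed anchor-drug dose combined with five library-drug doses (not always all listed) spaced in √10 steps. Five days later, one step fixed the cells and stained their nuclei (final 0.05% Triton X-100, 1% formaldehyde, 1 ug/ml Hoechst), and nuclei were counted on 4× images. Relative viability is the nuclei count in treated wells divided by the count in vehicle wells, and each value is the median of duplicate plates.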

[2] = compound: O=S(=O)(c1ccccc1)N(CC(F)(F)F)c1ccc(C(O)(C(F)(F)F)C(F)(F)F)cc1 + O=C(c1cc(Cc2n[nH]c(=O)c3ccccc23)ccc1F)N1CCN(C(=O)C2CC2)CC1 [Olaparib] (partner 8 µM)
In short: as §1

[3] = compound: O=S(=O)(c1ccccc1)N(CC(F)(F)F)c1ccc(C(O)(C(F)(F)F)C(F)(F)F)cc1 + Nc1nc2[nH]cc(CCc3ccc(C(=O)N[C@@H](CCC(=O)O)C(=O)O)cc3)c2c(=O)[nH]1 [Pemetrexed] (partner 0.2 µM)
In short: as §1

[4] = compound: C1=CC2=C(C=CC(=C2)C=C3C(=O)NC(=NCC4=CC=CS4)S3)N=C1 [RO-3306] + Cc1cc(Nc2cc(N3CCN(C)CC3)nc(Sc3ccc(NC(=O)C4CC4)cc3)n2)n[nH]1 [Tozasertib] (partner 0.1 µM)
In short: as §1

[5] = compound: O=S(=O)(c1ccccc1)N(CC(F)(F)F)c1ccc(C(O)(C(F)(F)F)C(F)(F)F)cc1 + CCNC(=O)c1noc(-c2cc(C(C)C)c(O)cc2O)c1-c1ccc(CN2CCOCC2)cc1 [Luminespib] (partner 0.01 µM)
In short: as §1

Row | Cell Line | relative viability ([1]; first compound 0.8 µM) | relative viability ([1]; first compound 2.53 µM) | relative viability ([1]; first compound 8 µM) | relative viability ([2]; first compound 0.8 µM) | relative viability ([2]; first compound 2.53 µM) | relative viability ([2]; first compound 8 µM) | relative viability ([3]; first compound 0.8 µM) | relative viability ([3]; first compound 2.53 µM) | relative viability ([3]; first compound 8 µM) | relative viability ([4]; first compound 0.01 µM) | relative viability ([4]; first compound 0.03162 µM) | relative viability ([4]; first compound 0.1 µM) | relative viability ([4]; first compound 0.3162 µM) | relative viability ([4]; first compound 1 µM) | relative viability ([5]; first compound 0.8 µM) | relative viability ([5]; first compound 2.53 µM) | relative viability ([5]; first compound 8 µM)
1 | NCI-H661 | 0.688 | 0.515 | 0.561 | 0.774 | 0.779 | 0.768 | 0.908 | 0.934 | 0.924 | 0.333 | 0.382 | 0.351 | 0.339 | 0.337 | 0.89 | 0.866 | 0.821
2 | EPLC-272H | 1.12 | 1.32 | 1.11 | 0.888 | 0.859 | 0.645 | 0.361 | 0.41 | 0.376 | 0.196 | 0.288 | 0.208 | 0.237 | 0.249 | 0.166 | 0.497 | 0.265
3 | NCI-H2023 | 0.659 | 0.564 | 0.464 | 0.601 | 0.48 | 0.441 | 0.274 | 0.268 | 0.231 | 0.401 | 0.327 | 0.254 | 0.241 | 0.308 | 0.921 | 0.638 | 0.535
4 | NCI-H358 | 0.598 | 0.521 | 0.578 | – | 0.563 | 0.517 | – | 0.177 | 0.181 | 0.0852 | 0.0922 | 0.103 | 0.102 | 0.101 | 0.195 | 0.332 | 0.352
5 | NCI-H1734 | 1.04 | 0.883 | 0.932 | 0.703 | 0.559 | 0.469 | 0.438 | 0.431 | 0.422 | 0.233 | 0.256 | 0.247 | 0.304 | 0.274 | 0.191 | 0.217 | 0.204
6 | COR-L23 | 1.12 | 0.971 | 0.748 | 0.357 | 0.35 | 0.34 | 0.2 | 0.193 | 0.208 | 0.238 | 0.175 | 0.178 | 0.169 | 0.166 | 0.953 | 0.728 | 0.628
7 | NCI-H596 | 1.17 | 0.838 | 0.968 | 0.634 | 0.681 | 0.651 | 0.549 | 0.528 | 0.562 | 0.837 | 0.712 | 0.771 | 0.834 | 0.794 | 1.13 | 0.69 | 0.923
8 | BEN | 1.09 | 0.858 | 0.82 | 0.889 | 0.875 | 0.876 | 0.702 | 0.742 | 0.972 | 0.548 | 0.47 | 0.622 | 0.608 | 0.496 | 0.343 | 0.289 | 0.182
9 | HCC-15 | 0.798 | 0.758 | 0.812 | 0.737 | 0.581 | 0.644 | 0.213 | 0.23 | 0.243 | 0.438 | 0.342 | 0.345 | 0.383 | 0.301 | 0.299 | 0.233 | 0.245
10 | NCI-H460 | 1.55 | 0.829 | 0.695 | 0.452 | 0.432 | 0.407 | 0.0543 | 0.0599 | 0.0652 | 0.217 | 0.542 | 0.392 | 0.116 | 0.0669 | 0.034 | 0.0266 | 0.0324
11 | EMC-BAC-2 | 0.902 | 0.846 | 0.796 | 0.471 | 0.47 | 0.483 | 0.402 | 0.401 | 0.416 | 0.394 | 0.306 | 0.295 | 0.263 | 0.254 | 1.28 | 1.18 | 1.17
12 | NCI-H520 | 1.09 | 1.23 | 1.25 | 0.333 | 0.346 | 0.32 | 0.757 | 0.908 | 0.795 | 0.44 | 0.481 | 0.39 | 0.426 | 0.394 | 0.218 | 0.242 | 0.237
13 | NCI-H1993 | 0.7 | 0.721 | 0.806 | 1.1 | 0.843 | 0.954 | 0.616 | 0.533 | 0.614 | 0.649 | 0.582 | 0.558 | 0.573 | 0.605 | 0.874 | 0.577 | 0.721
14 | NCI-H2126 | 0.783 | 0.718 | 0.739 | 0.999 | 0.878 | 0.803 | 0.82 | 0.743 | 0.672 | 0.867 | 0.841 | 0.781 | 0.749 | 0.75 | 0.994 | 0.83 | 0.831
15 | LK-2 | 0.643 | 0.553 | 0.301 | 0.918 | 0.845 | 0.816 | 0.283 | 0.266 | 0.298 | 0.183 | – | 0.164 | 0.167 | 0.169 | 0.175 | 0.174 | 0.227
16 | NCI-H441 | 0.559 | 0.504 | 0.49 | 0.657 | 0.469 | 0.654 | 0.25 | 0.262 | 0.285 | 0.587 | 0.527 | 0.604 | 0.538 | 0.481 | 0.317 | 0.37 | 0.372
17 | SW 1573 | 0.829 | 0.762 | 0.624 | 0.527 | 0.43 | 0.514 | 0.904 | 0.76 | 0.877 | 0.198 | – | 0.17 | 0.175 | 0.168 | 0.266 | 0.218 | 0.207
18 | NCI-H322M | 1.09 | 0.915 | 0.999 | 0.81 | 0.734 | 0.857 | 0.603 | 0.62 | 0.595 | 0.549 | 0.467 | 0.443 | 0.476 | 0.432 | 1.13 | 0.946 | 1
